Experimental data published in patent publication US20070092503A1, “Human alkaline sphingomyelinase and use thereof” (priority 2003, published 2007).
One block for each molecule: values may come before it.

Legend:
[1] = target: T1, human Alk-Smase (Homo sapiens, UniProt Q6UWV6); test: Alk-Smase activity in the presence of metal ions, detergents, bile salts, glutathione; format: biochemical
T1 construct: Human Alk-Smase has now been purified from small intestinal content; from tissue; host or cells: human small intestinal (ileostomy) content
T1 sequence (Q6UWV6 22-458): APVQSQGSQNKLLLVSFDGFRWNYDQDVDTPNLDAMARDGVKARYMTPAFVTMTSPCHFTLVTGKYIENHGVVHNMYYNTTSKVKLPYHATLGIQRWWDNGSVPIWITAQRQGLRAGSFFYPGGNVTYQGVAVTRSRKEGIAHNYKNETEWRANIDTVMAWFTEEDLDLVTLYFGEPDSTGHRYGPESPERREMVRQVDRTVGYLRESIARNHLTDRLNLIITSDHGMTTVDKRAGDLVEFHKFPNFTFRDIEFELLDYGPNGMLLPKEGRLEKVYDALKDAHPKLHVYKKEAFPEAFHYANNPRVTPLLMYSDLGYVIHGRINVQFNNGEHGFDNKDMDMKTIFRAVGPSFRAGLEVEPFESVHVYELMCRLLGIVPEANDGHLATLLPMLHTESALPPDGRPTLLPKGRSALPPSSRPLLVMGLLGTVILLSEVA
Experimental: As bile salts are important factors for lipid digestion, the effects of different bile salts on human Alk-Smase were investigated. […] The activities were determined in the presence of different concentrations of bile salts.

[2] = target: T1, human Alk-Smase; test: as above; format: biochemical; remark: listed apart in the source
[3] = test system: bacterial neutral Smase; conditions: reduced form
[4] = Lysophospholipase test with 14C-palmitoyl labelled lysophosphatidylcholine, TLC separation; format: biochemical
Experimental: At present the most intriguing functional similarity between Alk-Smase and NPP is the earlier observation that NPP2 has lysophospholipase D activity (M Umezo-Gozo et al J Cell Biol 2002; 158:227-33). To determine whether Alk-Smase also has lysophospholipase D activity, a trace amount of ^14C-palmitoyl labelled 1palmitoyl-lysosphosphatidylcholine was incubated with Alk-Smase using the optimal incubation conditions previously described (R D Duan and Å Nilsson Methods Enzymol 2000; 311:276-86). Lipids were then extracted according to known methods (Bligh and Dyer J Biochem Physiol 1959; 37:911-917), and separated on silica gel G plates that were developed in chloroform:methanol:water:acetic acid 25:20:0.3:3. The silica gel separates lysophosphatidylcholine and lysophosphatidic acid that are formed if there is a lysophospholipase D and monoglyceride formed by lysophospholipase C. […] It is therefore further disclosed herein that Alk-Smase may also influence cellular functions by removing lysophosphatidylcholine which can then not be converted to lysophosphatidic acid. Lysophosphatidic acid is a metabolite that stimulates growth of colon tumour cells. Our earlier studies have shown that Alk-Smase is not a general phosphlipase C since it has low activity against phosphatidylcholine (RD Duan, A Nilsson Methods Enzymol 2000; 311:276-86).

[5] = test system: HT29 human colon cancer cells; test: Proliferation of HT29 colon cancer cells, WST reagent; format: cell-based; conditions: for effect on proliferation / cell growth of HT29 cells: different doses, 18 h, WST reagent; for effect on DNA synthesis of HT-29 cells: enzyme added to cells in culture
Experimental: (§1) HT29 human colon cancer cells were incubated in RMPI-1640 medium with L-glutamine, containing antibiotics and 10% (v/v) heat inactivated fetal calf serum. At the exponential growth phase, the cells were incubated with purified rat Alk-Smase at different doses for 18 h. The cell proliferation rates were measured by WST reagent. Results are Mean± SD of three individual duplicate experiments.
Experimental conditions for the antiproliferative inhibition were that HT 29 cells were incubated with rat Alk-Smase at different doses for 18 h. The cell proliferation rates were measured by WST reagent.
as §1, with “L-glutamine” for “L-glutamine,”, “Mean±SD” for “Mean± SD”

[6] = test system: Cos-7 cells; test: Alk-Smase activity of transfected cells (cell lysate and medium); format: cell-based
Experimental: Cos 7 cells are transfected with either the wild type of Alk-Smase cDNA (sequence 21-1397 of ID No 5, reading frame) which encodes Seq ID No 4, or transfected with the Alk-Smase cDNA sequence from 21-1285 (C-truncated), which encodes a 415 amino acid sequence (Seq ID No 6). After transfection, the Alk-Smase activity in the medium and in the cell lysate was determined.
pCMV-sports6-Smase is transfected into mammalian Cos-7 cells. To transfect the cells with pCMV-sports6-Smase 4×10^5 Cos-7 cells are seeded in a 25 cm^2 flask in 4 ml of Dulbecco's modified Eagle's medium with 10% heat inactivated fetal calf serum and 2 mM Glutamine.
The cells are incubated until 90% confluent.
Cells are then transfected with 5 microgram pCMV-sports6-Smase and 16 microgram lipofectamine 2000™ in each flask followed by incubation for 48 h.
Untransfected cells are exposed to lipofectamine and treated the same as above.
At the end of the incubation, medium is collected and cells are lysed by a 50 mM Tris-HCl buffer containing 1 mM PMSF, 2 mM EDTA, 0.5 mM Dtt, 10 microgram/ml leupeptin, 10 microgram/ml aprotinine and 10 mM TC.
Cells are kept on ice, e.g., for 10 minutes, and then sonicated for 10 sec.
After centrifugation at 12000 g for 10 minutes at 4° C., human Alk-Smase activity and protein concentrations were determined.
Cos-7 cells transfected with a mock-vector is used as a control.

[7] = Characterisation of Alk-Smase: sphingomyelin hydrolysis (pH dependence, hydrolytic capacity); conditions: for hydrolytic capacity (Vmax, Lineweaver-Burk plot): sphingomyelin hydrolysed: by 1 mg of the enzyme in one hour
Experimental: To distinguish whether the enzyme was different from the Mg dependent neutral Smase, activity at pH 7.5 in the presence of 4 mM Mg2+ in comparison wit pH 8.5 in the presence of 2 mM EDTA was assayed.

maximal stimulating effect of bile salt on human Alk-Smase ([1]; maximum at the CMC of each bile salt): far more effective than other bile salts
Molecule: C[C@H](CCC(=O)NCCS(=O)(=O)O)[C@H]1CC[C@H]2[C@@H]3[C@H](O)C[C@@H]4C[C@H](O)CC[C@]4(C)[C@H]3CC[C@]12C [TCDC, taurochenodeoxycholate]

effect of increasing concentrations of divalent cation on Alk-Smase activity [2]: slightly increased
Molecule: [Mg+2] [Mg]

inhibition of Alk-Smase by EDTA [1]: not inhibited
Molecule: O=C(O)CN(CCN(CC(=O)O)CC(=O)O)CC(=O)O [EDTA]
reversal of the Zn2+ inhibition of Alk-Smase ([1]; 2 mM EDTA): Most of the inhibitory effect of Zn2+ was reversed

IC50 ([1]; read-out: concentration giving 50% inhibition of Alk-Smase activity): 15 µM
Molecule: [Zn+2] [Zn2^+]

effect on human Alk-Smase activity ([1]; in the presence or absence of TC (10 mM)): strongly inhibits
Molecule: Triton X 100

Molecule: N[C@@H](CCC(=O)N[C@@H](CS)C(=O)NCC(=O)O)C(=O)O [glutathione]
reduction of Alk-Smase activity ([1]; 7.5 mM glutathione, reduced form): 1%
effect on Alk-Smase activity (in words) ([1]; reduced form of glutathione): only slightly reduced
reduction of neutral Smase activity ([3]; 7.5 mM glutathione): 98%
concentration above which neutral Smase activity is sharply abolished [3]: higher than 5 mM

Molecule: C[C@H](CCC(=O)NCCC[N+](C)(C)CCCS(=O)(=O)[O-])[C@H]1CC[C@H]2[C@@H]3[C@H](O)C[C@@H]4C[C@H](O)CC[C@]4(C)[C@H]3C[C@H](O)[C@]12C [CHAPS]
effect on TC stimulation of Alk-Smase [1]: blocked the stimulatory effect of TC
effect on Alk-Smase activity ([1]; very low concentration (0.025 mM)): only slightly increased the activity

effect of increasing concentrations of divalent cation on Alk-Smase activity [2]: slightly increased
Molecule: [Ca+2] [Ca2^+]

formation of lysophosphatidic acid (lysophospholipase D activity) [4]: not demonstrated
activity at pH 8.5 with 2 mM EDTA compared with pH 7.5 with 4 mM Mg2+ [7]: significantly higher
activity at pH 7.5 relative to maximal activity ([7]; pH 7.5 versus pH 8.5): about 68%
B1: human Alk-Smase: human intestinal alkaline sphingomyelinase, 458 amino acid protein purified from small intestinal content (protein, listed as Homo sapiens)
chain: MRGPAVLLTVALATLLAPGAGAPVQSQGSQNKLLLVSFDGFRWNYDQDVDTPNLDAMARDGVKARYMTPAFVTMTSPCHFTLVTGKYIENHGVVHNMYYNTTSKVKLPYHATLGIQRWWDNGSVPIWITAQRQGLRAGSFFYPGGNVTYQGVAVTRSRKEGIAHNYKNETEWRANIDTVMAWFTEEDLDLVTLYFGEPDSTGHRYGPESPERREMVRQVDRTVGYLRESIARNHLTDRLNLIITSDHGMTTVDKRAGDLVEFHKFPNFTFRDIEFELLDYGPNGMLLPKEGRLEKVYDALKDAHPKLHVYKKEAFPEAFHYANNPRVTPLLMYSDLGYVIHGRINVQFNNGEHGFDNKDMDMKTIFRAVGPSFRAGLEVEPFESVHVYELMCRLLGIVPEANDGHLATLLPMLHTESALPPDALLVADGPCLPSLSQAKGCMPLSPAAPTPAWLLWCW
lysophosphatidylcholine degraded to 14C-monoglyceride ([4]; in one hour, optimal incubation conditions): 80%
effect on proliferation / cell growth of HT29 cells [5]: inhibit proliferation
effect on DNA synthesis of HT-29 cells [5]: decreased DNA synthesis
increase of human Alk-Smase activity in the medium ([6]; Cos-7 cells transfected with pCMV-sports6-Smase, 48 h): 5 fold
hydrolytic capacity (Vmax, Lineweaver-Burk plot): sphingomyelin hydrolysed [7]: 11 mmol
hydrolytic capacity (Vmax, Lineweaver-Burk plot): sphingomyelin hydrolysed ([7]; listed as Alk-Smase): about 11 mmole

B2: rat Alk-Smase: purified rat intestinal alkaline sphingomyelinase (protein, UniProt Q5EZ72 22-439, looked up)
Ectonucleotide …: GPVQRQQQHKLLLVSFDGFRWNYDQDVETPNLDSMAQEGVKARYMTPAFVTMTSPCHFTLVTGKYIENHGVVHNMFYNTTNKVRLPYHATLGIQRWWDNGSIPIWITAQRQGLKTGSFFYPGGNVTYQGEAVTMSRKEGVLHNYKNETEWRANVDTVMKWFTEEDVSLVTLYFGEPDSTGHKYGPESQERKDMVKQVDRTVGYLRDSIKRHHLTDSLNLIITSDHGMTTVNKKASDLVEFHKFPNFTFRDIEFELLDYGPNGMLIPKEGMLEKVYSVLKDAHPRLHVYKKEDFPKTFHYANNPRITSLLMYSDLGYVIHGRVNVQFNSGEHGFDNQDMDMKTIFRAVGPSFKAGLEVEPFESVHVYELMCQLLGIVPEPNDGHPGVLQPMLRSGSPLSRQHHLVVVLMGILTGLAKVV
effect on proliferation / cell growth of HT29 cells [5]: dose-dependently inhibited cell growth
effect on proliferation / cell growth of HT29 cells ([5]; listed as rat alkaline Smase): inhibit proliferation
effect on DNA synthesis of HT-29 cells [5]: decreased DNA synthesis

B3: amino acid 1-415: C-truncated human Alk-Smase, 415 amino acid sequence encoded by cDNA 21-1285 (protein, listed as Homo sapiens)
chain: MRGPAVLLTVALATLLAPGAGAPVQSQGSQNKLLLVSFDGFRWNYDQDVDTPNLDAMARDGVKARYMTPAFVTMTSPCHFTLVTGKYIENHGVVHNMYYNTTSKVKLPYHATLGIQRWWDNGSVPIWITAQRQGLRAGSFFYPGGNVTYQGVAVTRSRKEGIAHNYKNETEWRANIDTVMAWFTEEDLDLVTLYFGEPDSTGHRYGPESPERREMVRQVDRTVGYLRESIARNHLTDRLNLIITSDHGMTTVDKRAGDLVEFHKFPNFTFRDIEFELLDYGPNGMLLPKEGRLEKVYDALKDAHPKLHVYKKEAFPEAFHYANNPRVTPLLMYSDLGYVIHGRINVQFNNGEHGFDNKDMDMKTIFRAVGPSFRAGLEVEPFESVHVYELMCRLLGIVPEANDGHLATLLPMLHT
Alk-Smase activity produced, C-truncated versus full sequence cDNA ([6]; transfected cells, FIG. 13): higher
